Measured values published in US11110070B2 (priority 2015, dated 2021).
Entries after “also recorded” stand apart in the source; their conditions may differ. Like-named read-outs stand apart in the source and are kept apart here.

How the values were obtained:
129S6/SvEvTac mice [1] = assay: Novelty suppressed feeding (NSF) in SD experiments; assay type: in vivo
Procedure: Testing was performed as previously described (A13). Briefly, the testing apparatus consisted of a plastic box (50×50×20 cm). The floor was covered with approximately 2 cm of wooden bedding and the arena was brightly lit (1100-1200 lux). For 129S6/SvEv experiments, mice were food restricted for 12 h. For the C57BL/6N experiments, mice were food restricted for 24 h. All food was removed from the home cage. At the time of testing, a single pellet of food (regular chow) was placed on a white paper platform positioned in the center of the box. Each animal was placed in a corner of the box, and a stopwatch was immediately started. The latency of the mice to begin eating was recorded. Immediately after the latency was recorded, the food pellet was removed from the arena. The mice were then placed into a cage and the amount of food consumed in 5 min was measured (home cage consumption), followed by an assessment of post-restriction weight. We used the Kaplan-Meier survival analysis due to the lack of normal distribution of data. The Mantel-Cox log-rank test was used to evaluate differences between the experimental groups.

[2] = tested on: adult hippocampal neurogenesis; assay: Doublecortin and Ki67 immunohistochemistry, dentate gyrus; assay type: in vivo, mice; details: for number of Ki67+ cells: ketamine vs saline (FIG. 6K)
Procedure: Mice were deeply anesthetized with ketamine (100 mg kg) and transcardially perfused with IX phosphate buffer saline (PBS), followed by chilled 4% paraformaldehyde (PFA)/IX PBS (A15), Brains were post-fixed overnight in 4% PFA at 4° C., then cryoprotected in 30% sucrose/1× PBS, and stored at 4° C. Serial coronal sections (35 μm) were cut through the entire hippocampus on a cryostat and stored in IX PBS with 0.1% NaN3. Doublecortin (DCX) immunohistochemistry was performed as previously described (A15). For DCX immunohistochemistry, sections were washed in 1× PBS containing 0.5% Triton and then quenched in 0.3% H2O2 in IX PBS/CH3OH (1:1) for 15 min at room temperature. Sections were blocked in 10% normal donkey serum in 1× PBS with 0.5% Triton X-100 for 2 h at room temperature. Incubation with primary antibody was performed at 4° C. overnight (goat anti-DCX, 1:500, Santa Cruz Biotechnology, Santa Cruz, Calif., #SC 8,066) in 1× PBS with 0.5% Triton X-100. Sections were then incubated with a biotinylated secondary antibody (donkey anti-goat; 1:250, Jackson lmmunoResearch, West Grove, Pa.) for 2 h at room temperature. Sections were treated with avidin-biotin-peroxidase complex (ABC Elite Kit, Vector Labs, Burlingame, Calif.) followed by 3,3′ diaminobenzidine as a substrate for staining (Vector, Burlingame, Calif.).
Ki67 immunohistochemistry was performed as previously described (A16). For Ki67 immunohistochemistry, sections were washed in 1× PBS containing 0.5% Triton, and then blocked in 10% normal donkey serum in 1× PBS with 0.5% Triton X-100 for 2 h at room temperature. Incubation with primary antibody was performed at 4° C. overnight (rabbit anti-Ki67, 1:100, Vector Laboratories. Burlingame, Calif., #VP-RM04) in 1× PBS with 0.5% Triton X-100. Sections were then incubated with a biotinylated secondary antibody (donkey anti-rabbit; 1:250, Jackson ImmunoResearch, West Grove, Pa.) for 2 h at room temperature. Sections were treated with avidin-biotin-peroxidase complex (ABC Elite Kit, Vector Labs, Burlingame, Calif.) followed by 3,3′ diaminobenzidine as a substrate for staining (Vector, Burlingame, Calif.).
An investigator blind to treatment used a Zeiss Axioplan-2 upright microscope (Oberkochen, Germany) to count cells bilaterally in the granule cell layer of the dentate gyms throughout the entire rostra-caudal axis of the hippocampus (HPC). Every sixth section throughout the entire extent of the HPC was included in the analysis. Cells were counted bilaterally using a 20× objective. The average cells per section are presented throughout the text.

129S6/SvEvTac mice [3] = assay: Fighting behavior during SD bouts; assay type: in vivo; details: for latency of the CD-1 to attack the 129S6/SvEv mouse: vs SD-Sal
Procedure: Adult aggressor CD-1 male mice were single-housed in Macrolon® polycarbonate resin cages (15.25 in×7.8 in×9.5 in) (Animal Care Systems, Inc., Centennial, Colo.). Male 129S6/SvEvTac mice (9 weeks of age) were subsequently placed into the resident. CD-1 mouse's cage. Three antagonistic encounters were allowed between the CD-1 mouse and the intruder. Each of these encounters typically lasted less than 5 min. Following the encounters, mice were separated by a polished stainless steel cage divider (Animal Care Systems, Inc., Centennial, Colo., P/N C79171), which allowed for olfactory and auditory communication, but limited visual or tactile contact. The partition was removed daily for 2 weeks and 3 antagonistic encounters were allowed between the mice each day. This procedure consistently yielded a submissive phenotype in the experimental intruder mice. Control (Ctrl) mice were group housed 4 to 5 per cage in Macrolon® polycarbonate resin cages without dividers.

C57BL/6NTac mice = assay: NSF in CORT model; assay type: in vivo; details: ketamine 10 and 90 mg kg^−1 before CORT
Procedure: Experiment 5 (Pre-ketamine and pre-fluoxetine corticosterone (CORT)): C57BL16NTac mice were injected with ketamine (10, 30, 90 mg kg^−1, i.p.) 1 week before the start of CORT, or administered fluoxetine (18 mg kg^−1 per day) in the drinking water for 3 weeks before the start of CORT. Ketamine was purchased from Merial (100 mg/ml stock solution). Fluoxetine hydrochloride (160 μg/mL, equivalent to 18 mg kg^−1 per day in the drinking water) was purchased from Anawa Trading (Zurich, Switzerland) and dissolved in 0.45% hydroxypropyl-β-cyclodextrin (β-CD) (Sigma-Aldrich, Saint-Quentin Fallavier, France) solution. Following ketamine or fluoxetine treatment, CORT was administered for 3 weeks in the drinking water. CORT (4-pregnen-11b-DIOL-3 20-DIONE 21-hemisuccinate) (35 μg/ml) from. Sigma Aldrich (Saint-Quentin Fallavier, France) was dissolved in vehicle (0.45% β-CD). Control animals received vehicle (0.45% β-CD) throughout the duration of the experiment. […]
Testing was performed as previously described (A13). […] The latency of the mice to begin eating was recorded. Immediately after the latency was recorded, the food pellet was removed from the arena. The mice were then placed into a cage and the amount of food consumed in 5 min was measured (home cage consumption), followed by an assessment of post-restriction weight. […]

military patients = details: McGhee et al., cited from earlier work
C57BL/6J strain = details: cited from earlier work
[4] = 20 mg kg^−1 following the final SD session

CNC1(c2ccccc2Cl)CCCCC1=O (racemic) [ketamine, (RS)-2-(2-chlorophenyl)-2-(methylamino)cyclohexanone]
latency to eat in NSF (129S6/SvEvTac mice [1]; Ctrl mice, ketamine in post-SD design, vs saline): decreased the latency to eat; also recorded: significantly decreased the latency to approach the food pellet | latency to eat in NSF (129S6/SvEvTac mice [1]; SD mice, ketamine after SD, vs SD-Sal): abolished; also recorded: did not differ from one another | latency to feed in NSF (129S6/SvEvTac mice [1]; ketamine 30 mg kg^−1 before SD): no significant effect | number of Ki67+ cells ([2]; Ctrl mice): increases | number of Ki67+ cells ([2]; SD mice): not in SD mice | number of Ki67 cells in the dentate gyrus ([2]; ketamine administered after SD): significantly increases the number of Ki671 cells | DCX levels ([2]; ketamine in post-SD design (FIG. 6L)): does not alter DCX levels | adult hippocampal neurogenesis (levels of doublecortin and Ki67) ([2]; prophylactic ketamine before SD): did not observe an effect | average immobility during week 2 of SD bouts (129S6/SvEvTac mice [3]; SD-K vs SD-Sal): significantly decreased; also recorded: significantly altered | average immobility time during week 1 of SD bouts (129S6/SvEvTac mice [3]; all groups): not significantly different | latency of the CD-1 to attack the 129S6/SvEv mouse (129S6/SvEvTac mice [3]; ketamine 30 mg kg^−1, at the start of SD): significantly later; also recorded: only differed | latency of the CD-1 to attack the 129S6/SvEv mouse (129S6/SvEvTac mice [3]; ketamine 10 or 90 mg kg^−1): comparably attacked | latency to feed in NSF (C57BL/6NTac mice): prevented the chronic CORT-induced increase in latency to feed; also recorded: decreased the latency to feed | prevalence of PTSD (military patients; ketamine during an operation for burns vs no ketamine, 2008): decreased | incidence rate of PTSD (military patients; with and without intraoperative ketamine, 2014): comparable incidence rate of PTSD | social avoidance (C57BL/6J strain; 20 mg kg^−1 administered before SD): did not attenuate social avoidance | anhedonia (C57BL/6J strain; [4]): not anhedonia | social avoidance (C57BL/6J strain; [4]): attenuated social avoidance
